Drawing on US20210269434A1, “TRICYCLIC COMPOUNDS AS INHIBITORS OF KRAS” (Incyte Corporation, priority 2020, published 2021), this text covers IC50 for 16 compounds.

Where only a bound is given, the exact number is not on record here.

Assay [1] concerns MIA PaCa-2 (KRAS G12C) cells. The assay can be described thus: Cellular pERK HTRF assay (KRAS_G12C pERK). Conditions: Homo sapiens, MIA PaCa-2, 4 hours incubation, read-out: G12C_pERK. In kind it is cell-based, human. Put shortly: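 MIA PaCa-2 cells plated overnight, then exposed to compound for 4 h at 37 °C (G12C compounds). Phospho-ERK1/2 measured in lysates by HTRF (665/620 nm) after overnight antibody incubation; IC50 from percent inhibition versus log concentration.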
A general note: Time-resolved FRET reads energy transfer from a long-lived donor to a nearby acceptor.

The next assay deals with KRAS G12C (Homo sapiens, UniProt P01116, G12C). The assay can be described thus: GDP-GTP exchange assay (KRAS_G12C exchange). In kind it is biochemical. Conditions: bodipy-GDP loaded KRAS G12C 2.5 nM, SOS1 150 nM, GppNHp; 2 hours pre-incubation, 2 hours reaction; read-out: G12C_exchange. A digest of the protocol:
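Fluorescence exchange of bodipy-GDP for GppNHp, SOS1-driven, read at 485/520 nm; IC50 from four-parameter variable-slope fit. Both mutants used 2.5 nM final labelled protein and a 2 h compound pre-incubation. G12C reaction had 500 uM GppNHp and 150 nM SOS1 for 2 h; G12D ran 4 h.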

Sequence of KRAS G12C (P01116 1-188 isoform P01116-2 G12C): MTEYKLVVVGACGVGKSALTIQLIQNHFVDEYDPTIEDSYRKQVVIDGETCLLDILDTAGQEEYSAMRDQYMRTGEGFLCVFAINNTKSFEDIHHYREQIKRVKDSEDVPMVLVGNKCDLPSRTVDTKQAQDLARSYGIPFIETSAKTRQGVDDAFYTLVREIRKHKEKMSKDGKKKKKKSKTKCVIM

In the case of `COC/C=C/C(=O)N1CC[C@H](n2cnc3c(N4CC(C)(N(C)C)C4)nc4c(F)c(-c5c(C)c(Cl)cc6[nH]ncc56)c(Cl)cc4c32)C[C@H]1CC#N` (single isomer, unassigned) [Example 80a], the IC50 (in assay [1]; on KRAS G12C) was no more than 100 nM throughout.

In the case of `C=C(F)C(=O)N1CC[C@H](n2nnc3c(N4CC(N(C)C)C4)nc4c(F)c(-c5c(C)c(Cl)cc6[nH]ncc56)c(Cl)cc4c32)C[C@H]1CC#N` [Example 189, 2-((2S,4S)-4-(8-chloro-7-(6-chloro-5-methyl-1H-indazol-4-yl)-4-(3-(dimethylamino)azetidin-1-yl)-6-fluoro-1H-[1,2,3]triazolo[4,5-c]quinolin-1-yl)-1-(2-fluoroacryloyl)piperidin-2-yl)acetonitrile], the IC50 (in assay [1]; at KRAS G12C) was no more than 100 nM throughout.

Turning to `C=CC(=O)N1CC[C@H](n2cnc3c(O[C@@H](C)CN(C)C)nc4c(F)c(-c5ccc(F)cc5)c(Cl)cc4c32)C[C@H]1CC#N` [Example 122, 2-((2S,4S)-1-acryloyl-4-(8-chloro-4-(((S)-1-(dimethyl-amino)propan-2-yl)oxy)-6-fluoro-7-(4-fluorophenyl)-1H-imidazo[4,5-c]quinolin-1-yl)piperidin-2-yl)acetonitrile], the IC50 (in assay [1]; at KRAS G12C) was no more than 100 nM each time.

Regarding `C=CC(=O)N1CC[C@H](n2nnc3c(OC[C@@H]4CCCN4C)nc4c(F)c(-c5c(C)c(Cl)cc6[nH]ncc56)c(Cl)cc4c32)C[C@H]1CC#N` [Example 190a, 2-((2S,4S)-1-acryloyl-4-(8-chloro-7-(6-chloro-5-methyl-1H-indazol-4-yl)-6-fluoro-4-(((S)-1-methylpyrrolidin-2-yl)methoxy)-1H-[1,2,3]triazolo[4,5-c]quinolin-1-yl)piperidin-2-yl)acetonitrile], the IC50 (in assay [1]; on KRAS G12C) was no more than 100 nM each time.

As for `C=CC(=O)N1CC[C@H](n2nnc3c(N4CC(C)(N(C)C)C4)nc4c(F)c(-c5c(C)c(Cl)cc6[nH]ncc56)c(C)cc4c32)C[C@H]1CC#N` (single isomer, unassigned) [Example 193a], the IC50 (in assay [1]; at KRAS G12C) was no more than 100 nM each time.

In the case of `Cc1c(Cl)cc2[nH]ncc2c1-c1c(CCC#N)cc2c(nc(N3CC(N(C)C)C3)c3nnn([C@H]4CCN(C(=O)/C=C/CN(C)C)[C@H](CC#N)C4)c32)c1F` [Example 232, 3-(7-(6-chloro-5-methyl-1H-indazol-4-yl)-1-((2S,4S)-2-(cyanomethyl)-1-((E)-4-(dimethylamino)but-2-enoyl)piperidin-4-yl)-4-(3-(dimethylamino)azetidin-1-yl)-6-fluoro-1H-[1,2,3]triazolo[4,5-c]quinolin-8-yl)propanenitrile], the IC50 (in assay [1]; at KRAS G12C) was no more than 100 nM each time.

`COC/C=C/C(=O)N1CC[C@H](n2nnc3c(N4CC(C)(N(C)C)C4)nc4c(F)c(-c5c(C)c(F)cc6[nH]ncc56)c(C)cc4c32)C[C@H]1CC#N` [Example 203a, 2-((2S,4S)-4-(4-(3-(dimethylamino)-3-methylazetidin-1-yl)-6-fluoro-7-(6-fluoro-5-methyl-1H-indazol-4-yl)-8-methyl-1H-[1,2,3]triazolo[4,5-c]quinolin-1-yl)-1-((E)-4-methoxybut-2-enoyl)piperidin-2-yl)acetonitrile]: the IC50 (in assay [1]; at KRAS G12C) was no more than 100 nM each time.

For the compound `C=CC(=O)N1CCC(n2cnc3c(OC[C@@H]4CCCN4C)nc4c(F)c(-c5c(C)ccc6[nH]ncc56)c(Cl)cc4c32)CC1` (single isomer, unassigned) [Example 4a], the IC50 is 100 to 1000 nM in assay [1] and no more than 100 nM on KRAS G12C.

With `CC#CC(=O)N1CC[C@H](n2nnc3c(N4CCCCC4=O)nc4c(F)c(-c5cccc(Cl)c5C)c(Cl)cc4c32)C[C@H]1CC#N` [Example 93, 2-((2S,4S)-1-(but-2-ynoyl)-4-(8-chloro-7-(3-chloro-2-methylphenyl)-6-fluoro-4-(2-oxopiperidin-1-yl)-1H-[1,2,3]triazolo[4,5-c]quinolin-1-yl)piperidin-2-yl)acetonitrile], the IC50 (in assay [1]; at KRAS G12C) was no more than 100 nM in each case.

`C=CC(=O)N1CC[C@H](n2nnc3c(N4CC(N(C)C)C4)nc4c(Cl)c(-c5cccc6cccnc56)c(Cl)cc4c32)C[C@H]1CC#N` (single isomer, unassigned) [Example 283a]: the IC50 (in assay [1]; on KRAS G12C) was no more than 100 nM each time.

Regarding `Cc1cccc(-c2c(C)cc3c(nc(OC[C@@H]4CCCN4C)c4nnn([C@H]5CCN(C(=O)/C=C/CF)[C@H](CC#N)C5)c43)c2F)c1C` [Example 138, 2-((2S,4S)-4-(7-(2,3-dimethylphenyl)-6-fluoro-8-methyl-4-(((S)-1-methylpyrrolidin-2-yl)methoxy)-1H-[1,2,3]triazolo[4,5-c]quinolin-1-yl)-1-((E)-4-fluorobut-2-enoyl)piperidin-2-yl)acetonitrile], the IC50 (in assay [1]; on KRAS G12C) was no more than 100 nM throughout.

`CN(C)C/C=C/C(=O)N1CC[C@H](n2cnc3c(N4CC(N(C)C)C4)nc4c(F)c(-c5ccc(F)c6cccnc56)c(C(F)(F)F)cc4c32)C[C@H]1CC#N` (single isomer, unassigned) [Example 230a]: the IC50 (in assay [1]; on KRAS G12C) was no more than 100 nM in each case.

`C=CC(=O)N1CCC(n2cnc3c(OC[C@@H]4CCCN4C)nc4c(F)c(-c5cccc6ccccc56)c(Cl)cc4c32)CC1CC#N` (mixture of isomers) [Example 38, 2-(1-acryloyl-4-(8-chloro-6-fluoro-4-(((S)-1-methylpyrrolidin-2-yl)methoxy)-7-(naphthalen-1-yl)-1H-imidazo[4,5-c]quinolin-1-yl)piperidin-2-yl)acetonitrile]: the IC50 (in assay [1]; at KRAS G12C) was no more than 100 nM throughout.

On to `C=CC(=O)N1CCC(n2cnc3c(OC[C@@H]4CCCN4C)nc4c(F)c(-c5cccc(Cl)c5C)c(Cl)cc4c32)CC1CC#N` (mixture of isomers) [Example 41, 2-(1-acryloyl-4-(8-chloro-7-(3-chloro-2-methylphenyl)-6-fluoro-4-(((S)-1-methylpyrrolidin-2-yl)methoxy)-1H-imidazo[4,5-c]quinolin-1-yl)piperidin-2-yl)acetonitrile], for which the IC50 (in assay [1]; on KRAS G12C) was no more than 100 nM throughout.

For the compound `CC#CC(=O)N1CC[C@H](n2cnc3c(N4CC5(CCCN5C)C4)nc4c(F)c(-c5c(C)c(Cl)cc6[nH]ncc56)c(Cl)cc4c32)C[C@H]1CC#N` [Example 83a, 2-((2S,4S)-1-(but-2-ynoyl)-4-(8-chloro-7-(6-chloro-5-methyl-1H-indazol-4-yl)-6-fluoro-4-(5-methyl-2,5-diazaspiro[3.4]octan-2-yl)-1H-imidazo[4,5-c]quinolin-1-yl)piperidin-2-yl)acetonitrile], the IC50 (in assay [1]; at KRAS G12C) was no more than 100 nM throughout.

On to `C=CC(=O)N1CC[C@H](n2cnc3c(N4CC(N(C)C)C4)nc4c(F)c(-c5cccc(C)c5C)c(Cl)cc4c32)C[C@H]1CC#N` [Example 16, 2-((2S,4S)-1-acryloyl-4-(8-chloro-4-(3-(dimethylamino)azetidin-1-yl)-7-(2,3-dimethylphenyl)-6-fluoro-1H-imidazo[4,5-c]quinolin-1-yl)piperidin-2-yl)acetonitrile], for which the IC50 (in assay [1]; at KRAS G12C) was no more than 100 nM each time.
